Measured values from ChEMBL document CHEMBL1201862, “PubChem BioAssay data set” (2004).
Activity calls are given as the source filed them. Rule as the data show it, for most assays here: actives have a measured EC50 and inactives only a lower limit.

How the values were obtained:
[1] = inhibitors of intracellular T. cruzi replication, confirmation, NIH3T3 host cells, beta-gal luminescence (AID 2044); type: functional, cell-based;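 also: intracellular parasites grown in NIH/3T3 mouse fibroblasts as host cells; luminescent beta-galactosidase reporter signal from transgenic T. cruzi replicating inside host cells; inhibitors lower the luminescence signal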
[2] = inhibitors of firefly luciferase expression or activity, dose response, H4 neuroglioma cells, luminescence (AID 1990); type: functional, cell-based
[3] = inhibitors of SNCA 5'UTR-driven reporter translation, confirmation, H4 neuroglioma cells, luminescence (AID 1988); type: functional, cell-based
[4] = biological target: T1, Replicative DNA helicase DnaB (Mycobacterium tuberculosis, UniProt P9WMR3); test: DnaB intein splicing inhibitors, dose response, biochemical, cell-free fluorescence (AID 449749); type: functional
T1 sequence (P9WMR3 whole entry): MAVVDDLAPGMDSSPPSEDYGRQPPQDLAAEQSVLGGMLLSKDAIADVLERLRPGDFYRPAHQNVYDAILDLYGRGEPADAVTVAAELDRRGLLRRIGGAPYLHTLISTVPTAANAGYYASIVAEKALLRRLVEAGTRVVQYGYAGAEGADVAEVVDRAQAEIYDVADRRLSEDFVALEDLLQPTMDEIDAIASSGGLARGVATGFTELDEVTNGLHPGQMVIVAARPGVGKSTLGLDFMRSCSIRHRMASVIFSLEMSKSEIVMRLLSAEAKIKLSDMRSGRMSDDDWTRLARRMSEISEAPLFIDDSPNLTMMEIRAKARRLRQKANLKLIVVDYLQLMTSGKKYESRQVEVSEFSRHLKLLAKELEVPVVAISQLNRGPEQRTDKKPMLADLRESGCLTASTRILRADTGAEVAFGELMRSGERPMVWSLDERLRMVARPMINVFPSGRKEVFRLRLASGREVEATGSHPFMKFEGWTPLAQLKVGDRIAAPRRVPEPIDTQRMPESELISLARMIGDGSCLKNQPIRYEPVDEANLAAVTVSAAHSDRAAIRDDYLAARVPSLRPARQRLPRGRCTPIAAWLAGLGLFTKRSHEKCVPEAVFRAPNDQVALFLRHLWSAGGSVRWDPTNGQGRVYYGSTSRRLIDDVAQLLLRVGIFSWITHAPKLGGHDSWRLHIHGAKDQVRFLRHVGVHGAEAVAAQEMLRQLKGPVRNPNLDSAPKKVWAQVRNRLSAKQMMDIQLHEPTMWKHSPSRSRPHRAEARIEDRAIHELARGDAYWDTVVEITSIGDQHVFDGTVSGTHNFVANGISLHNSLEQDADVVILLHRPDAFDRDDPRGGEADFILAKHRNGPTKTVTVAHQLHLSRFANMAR

[5] = biological target: Beta-galactosidase (Escherichia coli, UniProt Q8VNN2); type: functional
Sequence of Beta-galactosidase (Q8VNN2 whole entry): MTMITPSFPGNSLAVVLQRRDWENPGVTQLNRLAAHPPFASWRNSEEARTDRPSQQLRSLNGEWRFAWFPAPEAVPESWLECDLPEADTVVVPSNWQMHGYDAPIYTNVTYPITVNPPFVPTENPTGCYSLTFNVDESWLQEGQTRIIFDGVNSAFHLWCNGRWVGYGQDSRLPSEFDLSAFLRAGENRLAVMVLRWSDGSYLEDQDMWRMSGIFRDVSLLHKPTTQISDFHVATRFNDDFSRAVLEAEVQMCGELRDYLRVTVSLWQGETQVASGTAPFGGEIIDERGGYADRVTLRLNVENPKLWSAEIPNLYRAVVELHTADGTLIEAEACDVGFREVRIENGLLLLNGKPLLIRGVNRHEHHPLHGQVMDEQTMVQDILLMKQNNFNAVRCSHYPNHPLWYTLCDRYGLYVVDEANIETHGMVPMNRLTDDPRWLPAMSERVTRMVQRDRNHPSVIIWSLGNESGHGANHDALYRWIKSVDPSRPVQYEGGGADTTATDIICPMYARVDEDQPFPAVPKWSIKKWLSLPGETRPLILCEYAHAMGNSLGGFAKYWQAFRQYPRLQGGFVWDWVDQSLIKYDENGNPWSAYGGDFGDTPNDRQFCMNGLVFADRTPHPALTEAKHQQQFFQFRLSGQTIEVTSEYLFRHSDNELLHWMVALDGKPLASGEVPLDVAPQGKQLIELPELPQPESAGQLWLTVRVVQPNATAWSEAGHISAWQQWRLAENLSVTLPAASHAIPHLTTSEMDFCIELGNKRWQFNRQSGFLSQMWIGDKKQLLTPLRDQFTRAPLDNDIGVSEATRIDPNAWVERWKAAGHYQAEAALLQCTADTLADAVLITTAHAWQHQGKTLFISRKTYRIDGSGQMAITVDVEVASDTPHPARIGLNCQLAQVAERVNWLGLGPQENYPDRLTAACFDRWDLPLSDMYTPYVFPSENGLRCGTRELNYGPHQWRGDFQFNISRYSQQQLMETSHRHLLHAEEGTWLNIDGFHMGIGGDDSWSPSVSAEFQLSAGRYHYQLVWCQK

[6] = biological target: T2, Caspase-3 (Homo sapiens, UniProt P42574); test: SAR Analysis of small molecule inhibitors of Sentrin-specific proteases (SENPs) using a Caspase-3 Selectivity assay. [Related pubchem assays (depositor defined):AID2540, AID2599, AID434973, AID489001]; type: functional
T2 sequence (P42574 whole entry): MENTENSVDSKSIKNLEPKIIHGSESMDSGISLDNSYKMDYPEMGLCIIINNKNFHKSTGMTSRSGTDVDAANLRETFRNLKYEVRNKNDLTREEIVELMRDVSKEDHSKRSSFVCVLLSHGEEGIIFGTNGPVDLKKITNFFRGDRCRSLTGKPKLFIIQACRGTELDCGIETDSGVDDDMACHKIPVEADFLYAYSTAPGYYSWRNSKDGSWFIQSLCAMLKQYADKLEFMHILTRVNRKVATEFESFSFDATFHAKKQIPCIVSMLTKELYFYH

[7] = biological target: T3, Sentrin-specific protease 6 (Homo sapiens, UniProt Q9GZR1); test: SAR Analysis of small molecule inhibitors of Sentrin-specific protease 6 (SENP6) using a Luminescent assay. [Related pubchem assays (depositor defined):AID2582, AID2599]; type: functional
T3 sequence (Q9GZR1 whole entry): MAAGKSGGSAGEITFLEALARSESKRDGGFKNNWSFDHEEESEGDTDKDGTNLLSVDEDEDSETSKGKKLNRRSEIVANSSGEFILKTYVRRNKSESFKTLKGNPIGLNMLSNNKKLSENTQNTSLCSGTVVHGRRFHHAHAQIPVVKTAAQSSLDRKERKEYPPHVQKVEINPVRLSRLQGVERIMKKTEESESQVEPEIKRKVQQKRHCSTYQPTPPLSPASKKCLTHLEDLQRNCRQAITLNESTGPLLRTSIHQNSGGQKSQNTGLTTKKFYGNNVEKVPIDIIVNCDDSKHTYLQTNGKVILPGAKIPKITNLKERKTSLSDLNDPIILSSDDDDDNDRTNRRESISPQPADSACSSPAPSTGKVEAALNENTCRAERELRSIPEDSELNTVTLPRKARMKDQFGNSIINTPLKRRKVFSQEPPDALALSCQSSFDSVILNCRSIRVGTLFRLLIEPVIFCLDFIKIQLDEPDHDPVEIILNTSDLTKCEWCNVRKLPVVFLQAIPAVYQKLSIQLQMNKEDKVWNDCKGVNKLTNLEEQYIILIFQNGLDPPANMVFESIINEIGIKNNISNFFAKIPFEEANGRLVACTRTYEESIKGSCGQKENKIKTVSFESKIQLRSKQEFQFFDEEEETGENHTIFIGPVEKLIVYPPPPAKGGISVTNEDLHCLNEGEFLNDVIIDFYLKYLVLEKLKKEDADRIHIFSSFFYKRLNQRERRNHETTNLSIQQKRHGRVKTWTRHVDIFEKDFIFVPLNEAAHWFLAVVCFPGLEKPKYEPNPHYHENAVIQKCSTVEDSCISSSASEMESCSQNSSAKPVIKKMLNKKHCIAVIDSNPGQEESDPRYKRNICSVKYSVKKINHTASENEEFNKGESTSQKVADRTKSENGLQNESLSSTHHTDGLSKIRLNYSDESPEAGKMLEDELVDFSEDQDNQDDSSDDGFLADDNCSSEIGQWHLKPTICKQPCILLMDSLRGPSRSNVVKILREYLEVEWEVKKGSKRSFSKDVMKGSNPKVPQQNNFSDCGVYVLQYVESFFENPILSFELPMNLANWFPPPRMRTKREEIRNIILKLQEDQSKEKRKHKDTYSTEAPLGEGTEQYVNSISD

| SMILES | EC50 [1] | EC50 [2] | EC50 [3] | AC50 [4] | EC50 [5] | IC50 [6] | IC50 [7] |
| --- | --- | --- | --- | --- | --- | --- | --- |
| COc1cc(NC(=O)Cn2ncc(Cl)c(Cl)c2=O)c(C)cc1[N+](=O)[O-] | 2.39 µM (active) | 8.09 µM (active) | > 120 µM (not active) | 26.6 µM (active) | > 31.5 µM (inactive) |  |  |
| Oc1ccc(/C=N\Nc2cc(N3CCOCC3)nc(N3CCOCC3)n2)c(O)c1 |  |  |  |  |  | > 99 µM (inactive) | 31.8 µM (active) |
